Laboratory results published in US7105296B2, “Genes encoding Baeyer-Villiger monooxygenases” (E. I. du Pont de Nemours and Company, priority 2001, dated 2006).

Tests used:
Experiment in all cases: chnB monooxygenase activity by NADPH oxidation at 340 nm
Type in all cases: biochemical
[1] = system: Rhodococcus sp. phi1 chnB monooxygenase; conditions: purified over-expressed enzyme; 1.25 mM substrate; pH 7.5; ND = No Activity Detected
From the text: (§1) Following amplification, the chnB gene fragments were cloned into pTrcHis-TOPO TA vectors with either an N-terminal tail or C-terminal tail, as provided by the vector sequence (N-terminal tail for Brevibacterium sp. HCU, Rhodococcus sp. phi1, Rhodococcus sp. phi2, and Arthrobacter sp. BP2 monooxygenases; C-terminal tail for Acinetobacter sp. SE19 and Acidovorax sp. CHX monooxygenases). These vectors were transformed into E. coli, with transformants grown in Luria-Bertani broth supplemented with ampicillin (100 ug/ml) and riboflavin (0.1 ug/ml) at 30° C. until the absorbance at 600 nm (A600) reached 0.5. When the A600 was reached, the temperature was shifted to 16° C.
(§2) The encoded monooxygenase sequences were expressed upon addition of IPTG to the culture media, 30 min after the temperature shift to 16° C. The cultures were grown further overnight (14 hrs) and harvested by centrifugation in a cold centrifuge. The cells were treated with lysozyme (100 mg/ml) for 30 min on ice and sonicated. Following sonication, cell extracts were centrifuged and the supernatant was equilibrated with Ni-NTA resin (Qiagen, Valencia, Calif.) for 1 hr at 4° C. Protein bound resin was washed successively with increasing concentrations of imidazole buffer until the protein of interest was released from the resin. The purified protein was concentrated and the buffer exchanged to remove the imidazole. The protein concentration was adjusted to 1 ug/ml.
(§3) Compounds were selected on the basis of previous observations by van der Werf (J. Biochem. 347:693–701 (2000)) and Miyamoto et al. (Biochimica et Biophysica Acta 1251: 115–124 (1995)) and by searches for the ketone substructure.
(§4) All compounds were obtained from Sigma-Aldrich with only two exceptions. Levoglucosenone was obtained from Toronto Research Chemicals, Inc. and dimethyl-2-piperidone was prepared according to U.S. Pat. No. 6,077,955. For enzyme assays all compounds were dissolved to a concentration of 0.1 M in methanol, with the exceptions of norcamphor (dissolved in ethyl acetate), cyclododecanone, cycltridecanone and cyclopentadecanone (dissolved in propanol), and levoglucosenone (dissolved with acetone).
(§5) The monooxygenase activity of each over-expressed enzyme was assayed spectrophotometrically at 340 nm by monitoring the oxidation of NADPH. Assays were performed in individual quartz cuvettes, with a pathlength of 1 cm. […] An Ultrospec 4000 (Pharmacia Biotech, Cambridge, England) was used to read the absorbance of the samples over a two to ten minute time period and the SWIFT (Pharmacia Biotech) program was used to calculate the slope of the reduction in absorbance over time. For the Brevibacterium sp. […] Monooxygenase activity of each over-expressed enzyme is shown in Table 5, with respect to each ketone substrate. The specific activity values listed are given in umol/min/mg. The notation “ND” refers to “No Activity Detected”.

[2] = system: Acidovorax sp. CHX chnB monooxygenase; conditions: purified over-expressed enzyme; 1.25 mM substrate; pH 7.5; ND = No Activity Detected
From the text: as §1, §2, §3, §4, §5

[3] = molecular target: T1, Acinetobacter sp. SE19 chnB monooxygenase (Acinetobacter sp., UniProt Q9F7E4); conditions: purified over-expressed enzyme; 1.25 mM substrate; pH 7.5; ND = No Activity Detected
T1 construct: expression in E. coli of isolated full length BVMO genes from Brevibacterium sp; HCU, Acinetobacter SE19; C-terminal tail provided by the pTrcHis-TOPO vector (C); made in house; host or cells: E. coli
From the text: as §1, §2, §3, §4, §5

[4] = system: Rhodococcus sp. phi2 chnB monooxygenase; conditions: purified over-expressed enzyme; 1.25 mM substrate; pH 7.5; ND = No Activity Detected
From the text: as §1, §2, §3, §4, §5

[5] = system: Arthrobacter sp. BP2 chnB monooxygenase; conditions: purified over-expressed enzyme; 1.25 mM substrate; pH 7.5; ND = No Activity Detected
From the text: as §1, §2, §3, §4, §5

[6] = system: Brevibacterium sp. HCU chnB1 monooxygenase; conditions: purified over-expressed enzyme; 1.25 mM substrate; pH 7.5; ND = No Activity Detected
From the text: as §1, §2, §3, §4, §5

[7] = system: Brevibacterium sp. HCU chnB2 monooxygenase; conditions: purified over-expressed enzyme; 1.25 mM substrate; pH 7.5; rates multiplied by a factor of 3.25 to adjust for decrease in activity due to storage; ND = No Activity Detected
From the text: as §1, §2, §3, §4, §5

O=C1CCCCC1=O [1,2-cyclohexanedione]
Specific Activity of Monooxygenase Enzymes Against Various Ketone Substrates, sp. phi1 chnB [1]: 0.083 µmol/min/mg
Specific Activity of Monooxygenase Enzymes Against Various Ketone Substrates, sp. CHX chnB [2]: 0.096 µmol/min/mg
Specific Activity of Monooxygenase Enzymes Against Various Ketone Substrates, sp. SE19 chnB [3]: 0.077 µmol/min/mg

O=C1CCCC(=O)C1 [1,3-cyclohexanedione]
Specific Activity of Monooxygenase Enzymes Against Various Ketone Substrates, sp. CHX chnB [2]: 0.032 µmol/min/mg

O=C1CCCCC1c1ccccc1 (centres unmarked) [2-phenyl-cyclohexanone]
Specific Activity of Monooxygenase Enzymes Against Various Ketone Substrates, sp. phi2 chnB [4]: 0.730 µmol/min/mg

CCCCCCCCCCCC(C)=O [2-tridecanone]
Specific Activity of Monooxygenase Enzymes Against Various Ketone Substrates, sp. phi1 chnB [1]: 0.160 µmol/min/mg
Specific Activity of Monooxygenase Enzymes Against Various Ketone Substrates, sp. CHX chnB [2]: 0.096 µmol/min/mg

O=C1CCCCCCCCC1 [Cyclodecanone]
Specific Activity of Monooxygenase Enzymes Against Various Ketone Substrates, sp. phi1 chnB [1]: 0.077 µmol/min/mg
Specific Activity of Monooxygenase Enzymes Against Various Ketone Substrates, sp. CHX chnB [2]: 0.160 µmol/min/mg
Specific Activity of Monooxygenase Enzymes Against Various Ketone Substrates, sp. SE19 chnB [3]: 0.320 µmol/min/mg

O=C1CCCCCCCCCCC1 [Cyclododecanone]
Specific Activity of Monooxygenase Enzymes Against Various Ketone Substrates, sp. CHX chnB [2]: 0.051 µmol/min/mg

O=C1CCCCCCC1 [Cyclooctanone]
Specific Activity of Monooxygenase Enzymes Against Various Ketone Substrates, sp. CHX chnB [2]: 0.410 µmol/min/mg

O=C1CCCCCCCCCC1 [Cycloundecanone]
Specific Activity of Monooxygenase Enzymes Against Various Ketone Substrates, sp. CHX chnB [2]: 0.058 µmol/min/mg
Specific Activity of Monooxygenase Enzymes Against Various Ketone Substrates, sp. SE19 chnB [3]: 0.064 µmol/min/mg
Specific Activity of Monooxygenase Enzymes Against Various Ketone Substrates, sp. BP2 chnB [5]: 0.064 µmol/min/mg
Specific Activity of Monooxygenase Enzymes Against Various Ketone Substrates, sp. phi2 chnB [4]: 0.051 µmol/min/mg

O=C1CC2CC[C@H]1C2 [Norcamphor]
Specific Activity of Monooxygenase Enzymes Against Various Ketone Substrates, sp. HCU chnB1 [6]: 0.410 µmol/min/mg

CCCCCCC(=O)CCCCCC [dihexyl ketone]
Specific Activity of Monooxygenase Enzymes Against Various Ketone Substrates, sp. phi1 chnB [1]: 0.160 µmol/min/mg
Specific Activity of Monooxygenase Enzymes Against Various Ketone Substrates, sp. HCU chnB2 [7]: 0.270 µmol/min/mg

C[S+](C)[O-] [dimethyl sulfoxide]
Specific Activity of Monooxygenase Enzymes Against Various Ketone Substrates, sp. HCU chnB1 [6]: 0.230 µmol/min/mg
